In BindingDB's records for doi:10.1021/jm051059p (Merck Frosst Centre For Therapeutic Research, 2006) one finds IC50 data, which are given here for five compounds.

The assay deals with T1, Cathepsin K (Oryctolagus cuniculus, UniProt P43236).
T1 sequence (P43236 whole entry): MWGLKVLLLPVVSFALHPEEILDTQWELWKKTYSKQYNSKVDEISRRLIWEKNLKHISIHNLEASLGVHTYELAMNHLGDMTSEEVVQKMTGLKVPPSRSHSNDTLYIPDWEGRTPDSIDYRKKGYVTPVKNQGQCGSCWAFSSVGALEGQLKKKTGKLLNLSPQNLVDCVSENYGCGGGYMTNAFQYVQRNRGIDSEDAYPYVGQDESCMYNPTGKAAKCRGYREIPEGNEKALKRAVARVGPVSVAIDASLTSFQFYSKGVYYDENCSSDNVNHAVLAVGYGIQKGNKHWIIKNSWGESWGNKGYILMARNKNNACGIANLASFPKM
The assay can be described thus: Enzyme Inhibition Assay. The protocol: Prior to the addition of substrate, different concentrations of the inhibitor ranging from 100 uM to 0.2 nM were preincubated for 15 min with enzyme to allow the establishment of the enzyme-inhibitor complex. The proteolytic cleavage of N-acyl aminocoumarins by cathepsins was conducted in 96-well plate format and the plate read using a Spectramax (Molecular Devices) plate reader. The excitation wavelength was 355 nm and the emission wavelength was 460 nm for peptidyl-AMC substrates. The percent inhibition of the reaction was calculated from a control reaction containing only vehicle. IC50 curves were generated by fitting percent inhibition values to a four parameter logistic model (SOFTMAX PRO, Molecular Devices).

The structures appear in SMILES notation.

For `CSc1ccc(/C=C\[C@@H]2CCCC[C@H]2C(=O)NCC#N)cc1` (racemic) [racemic mixture], for the setting “pH 5.5, 22 °C”, the 50% inhibitory concentration (IC50) (as a rule, the concentration at which inhibition is half-maximal) stood at 0.5 nM. That is a sub-nanomolar value.

For the compound `N#CCNC(=O)[C@@H]1CC(F)(F)CC[C@H]1c1ccccc1-c1ccc(F)cc1` (racemic) [racemic mixture], the IC50 was found to be 19 nM.

As for `N#CCNC(=O)[C@@H]1CCCC[C@H]1CSc1ccc(N)cc1` (racemic) [racemic mixture], the midpoint of inhibition (pH 5.5, 22 °C), the IC50, lay at 100 nM.

On to `CSc1ccc(CC[C@@H]2CCCC[C@H]2C(=O)NCC#N)cc1` [racemic mixture], for which the IC50 (pH 5.5, 22 °C) is 1.7 nM. Against the preceding compound, the IC50 is about 59-fold lower.

Turning to `Cc1ccc(SC[C@@H]2CCCC[C@H]2C(=O)NCC#N)cc1` [racemic mixture], the IC50 (pH 5.5, 22 °C) is 100 nM.
